This is an account of results in patent US20220386606A1, “SPECIFICALLY SUBSTITUTED 3-PHENYL-5-SPIROCYCLOPENTYL-3-PYRROLIN-2-ONES AND THEIR USE AS HERBICIDES” (Bayer Aktiengesellschaft, priority 2019, published 2022).

Assay [1] deals with AMARE. Put plainly: Post-emergence herbicidal action against AMARE. As to conditions: 80 g/ha, visual assessment about 3 weeks after treatment vs untreated controls. Format: in vivo, Amaranthus retroflexus. The procedure: (§1) Seeds of monocotyledonous and dicotyledonous weed and crop plants are laid out in sandy loam soil in wood-fiber pots, covered with soil and cultivated in a greenhouse under good growth conditions. 2 to 3 weeks after sowing, the test plants are treated at the one-leaf stage. The compounds of the invention, formulated in the form of wettable powders (WP) or as emulsion concentrates (EC), are then sprayed onto the green parts of the plants as aqueous suspension or emulsion at a water application rate equating to 600 to 800 l/ha with addition of 0.2% wetting agent. After the test plants have been left to stand in the greenhouse under optimal growth conditions for about 3 weeks, the action of the preparations is assessed visually in comparison to untreated controls (herbicidal action in percent (%): 100% activity=the plants have died, 0% activity=like control plants).

The test system of assay [2] is SETVI. Put plainly: Post-emergence herbicidal action against SETVI. Format: in vivo, Setaria viridis. The note with it: 80 g/ha, visual assessment about 3 weeks after treatment vs untreated controls. In short, it runs like this:
(§2)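 Herbicidal action is rated visually in percent against untreated controls, where 100% means dead plants and 0% means no difference. Ratings come about 3 weeks after foliar spraying of one-leaf-stage plants with aqueous WP or EC preparations plus 0.2% wetting agent at 600 to 800 l/ha.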

Assay [3] concerns DIGSA. Put plainly: Post-emergence herbicidal action against DIGSA. Format: in vivo, Digitaria sanguinalis. The note with it: 80 g/ha, visual assessment about 3 weeks after treatment vs untreated controls. In short, it runs like this: as §2
The subject of assay [4] is LOLRI. Put plainly: Pre-emergence herbicidal action against LOLRI (Table 8, titled post-emergence at 320 g/ha). Format: in vivo, Lolium rigidum. As to conditions: table stands in the pre-emergence section. In short, it runs like this: (§3)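 Weed and crop seeds sown in sandy loam, then WP or EC formulations sprayed onto covering soil pre-emergence as aqueous suspension or emulsion at 600 to 800 L/ha water with 0.2% wetting agent. Greenhouse-grown; visual damage scored after 3 weeks versus untreated controls, 0–100%.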

Assay [5] concerns ALOMY. Put plainly: Post-emergence herbicidal action against ALOMY. Format: in vivo, Alopecurus myosuroides. The note with it: 80 g/ha, visual assessment after about 3 weeks. The gist of the method: as §2
The subject of assay [6] is ALOMY. Put plainly: Pre-emergence herbicidal action against ALOMY. Format: in vivo, Alopecurus myosuroides. The note with it: 320 g/ha, scored visually after 3 weeks vs untreated controls. In short, it runs like this: as §3
In assay [7] the test system is DIGSA. Put plainly: Pre-emergence herbicidal action against DIGSA. Format: in vivo, Digitaria sanguinalis. The note with it: 320 g/ha, scored visually after 3 weeks vs untreated controls. The gist of the method: as §3
Assay [8] deals with AVEFA. Put plainly: Post-emergence herbicidal action against AVEFA. Format: in vivo, Avena fatua. The note with it: 80 g/ha, visual assessment after about 3 weeks. In short, it runs like this: as §2
The next assay relates to VIOTR. Put plainly: Pre-emergence herbicidal action against VIOTR. Format: in vivo, Viola tricolor. The note with it: 320 g/ha. The gist of the method:
as §3

The test system of assay [9] is AMARE. Put plainly: Pre-emergence herbicidal action against AMARE. Format: in vivo, Amaranthus retroflexus. The note with it: 320 g/ha. In short, it runs like this: as §3
In assay [10] the test system is AVEFA. Put plainly: Pre-emergence herbicidal action against AVEFA. Format: in vivo, Avena fatua. The note with it: 320 g/ha, scored visually after 3 weeks vs untreated controls. In short, it runs like this:
as §3

For assay [11], the system named is LOLRI. Put plainly: Post-emergence herbicidal action against LOLRI. Format: in vivo, Lolium rigidum. As to conditions: 80 g/ha, visual assessment about 3 weeks after treatment vs untreated controls. The gist of the method:
as §2

In assay [12] the test system is ECHCG. Put plainly: Pre-emergence herbicidal action against ECHCG. Format: in vivo, Echinochloa crus-galli. As to conditions: 320 g/ha, scored visually after 3 weeks vs untreated controls. In short, it runs like this:
as §3

Assay [13] deals with VERPE. Put plainly: Pre-emergence herbicidal action against VERPE. Format: in vivo, Veronica persica. The note with it: 320 g/ha. In short, it runs like this:
as §3

The test system of a further assay is POLCO. Put plainly: Pre-emergence herbicidal action against POLCO. Format: in vivo, Polygonum convolvulus. The note with it: 320 g/ha. In short, it runs like this:
as §3

The subject of assay [14] is ABUTH. Put plainly: Pre-emergence herbicidal action against ABUTH. Format: in vivo, Abutylon threophrasti. As to conditions: 320 g/ha. In short, it runs like this: as §3
In assay [15] the test system is ECHCG. Put plainly: Post-emergence herbicidal action against ECHCG. The note with it: 80 g/ha, visual assessment about 3 weeks after treatment vs untreated controls. Format: in vivo, Echinochloa crus-galli. In short, it runs like this:
as §2

Assay [16] deals with SETVI. Put plainly: Pre-emergence herbicidal action against SETVI. Format: in vivo, Setaria viridis. As to conditions: 320 g/ha, scored visually after 3 weeks vs untreated controls. The gist of the method: as §3
Assay [17] relates to VERPE. Put plainly: Post-emergence herbicidal action against VERPE. Format: in vivo, Veronica persica. As to conditions: 80 g/ha, visual assessment about 3 weeks after treatment vs untreated controls. The procedure: as §1
Assay [18] deals with ABUTH. Put plainly: Post-emergence herbicidal action against ABUTH. Format: in vivo, Abutylon threophrasti. The note with it: 80 g/ha, visual assessment about 3 weeks after treatment vs untreated controls. In short, it runs like this: as §2

For `CC#Cc1cc(C)c(C2=C(OC(=O)OCC)C3(CCC(COC)C3)NC2=O)c(Br)c1` (stereo not drawn) [Example P-31], the “Post-emergence action against AMARE in %” value with AMARE [1] came to 80%. In addition, in the assay on SETVI [2], the “Post-emergence action against SETVI in %” value came out at 100%. Also, the “Post-emergence action against DIGSA in %” value in the assay with DIGSA [3] is listed as 100%. Further, the “Pre-emergence herbicidal action against LOLRI in %” value in the assay on LOLRI [4] came out at 100%. For the same compound, the “Post-emergence action against ALOMY in %” value in the assay with ALOMY [5] was found to be 90%. The “Pre-emergence action against ALOMY in %” value in the assay with ALOMY [6] came to 100%. In the assay with DIGSA [7], the “Pre-emergence action against DIGSA in %” value is 100%. Besides, the “Post-emergence action against AVEFA in %” value in the assay with AVEFA [8] is 100%. The “Pre-emergence action against VIOTR in %” value with VIOTR turned out to be 100%. Further, the “Pre-emergence action against AMARE in %” value with AMARE [9] amounted to 100%. Moreover, the “Pre-emergence action against AVEFA in %” value in the assay on AVEFA [10] worked out at 100%. Besides, in the assay with LOLRI [11], the “Post-emergence action against LOLRI in %” value worked out at 100%. Also, in the assay with ECHCG [12], the “Pre-emergence action against ECHCG in %” value was 100%. Further, the “Pre-emergence action against VERPE in %” value in the assay with VERPE [13] is given as 90%. Further, in the assay on POLCO, the “Pre-emergence action against POLCO in %” value was determined as 90%. Moreover, in the assay with ABUTH [14], the “Pre-emergence action against ABUTH in %” value was found to be 90%. The “Post-emergence action against ECHCG in %” value in the assay with ECHCG [15] is reported as 100%. Further, the “Pre-emergence action against SETVI in %” value with SETVI [16] is given as 100%.

`CC#Cc1cc(C)c(C2=C(OC(=O)OCC)C3(CCC(COCC)C3)NC2=O)c(F)c1` (stereo not drawn) [Example P-54]: the “Post-emergence action against DIGSA in %” value in the assay on DIGSA [3] came to 100%. The “Pre-emergence herbicidal action against LOLRI in %” value with LOLRI [4] is on record as 100%. For the same compound, in the assay on ALOMY [5], the “Post-emergence action against ALOMY in %” value stood at 100%. In addition, the “Post-emergence action against VERPE in %” value in the assay on VERPE [17] is 80%. Moreover, the “Pre-emergence action against ALOMY in %” value with ALOMY [6] came to 100%. Moreover, in the assay on DIGSA [7], the “Pre-emergence action against DIGSA in %” value worked out at 100%. Further, the “Post-emergence action against AVEFA in %” value with AVEFA [8] came out at 100%. Moreover, the “Pre-emergence action against VIOTR in %” value with VIOTR is 100%. Moreover, the “Pre-emergence action against AMARE in %” value with AMARE [9] is given as 100%. Further, in the assay on AVEFA [10], the “Pre-emergence action against AVEFA in %” value is 90%. In the assay with LOLRI [11], the “Post-emergence action against LOLRI in %” value is recorded as 100%. For the same compound, the “Pre-emergence action against ECHCG in %” value with ECHCG [12] is reported as 100%. The “Pre-emergence action against VERPE in %” value with VERPE [13] worked out at 80%. Also, in the assay on POLCO, the “Pre-emergence action against POLCO in %” value was found to be 80%. Further, in the assay with ECHCG [15], the “Post-emergence action against ECHCG in %” value worked out at 100%. Further, the “Pre-emergence action against SETVI in %” value in the assay on SETVI [16] is 100%. Also, in the assay with ABUTH [18], the “Post-emergence action against ABUTH in %” value is recorded as 80%.

For the compound `CC#Cc1cc(C)c(C2=C(OC(=O)C(C)C)C3(CCC(COC)C3)NC2=O)c(F)c1` (stereo not drawn) [Example P-58], the “Post-emergence action against AMARE in %” value in the assay with AMARE [1] was 80%. In addition, in the assay on DIGSA [3], the “Post-emergence action against DIGSA in %” value is on record as 100%. In the assay with LOLRI [4], the “Pre-emergence herbicidal action against LOLRI in %” value was found to be 100%. For the same compound, the “Post-emergence action against ALOMY in %” value in the assay on ALOMY [5] came out at 100%. Besides, the “Pre-emergence action against ALOMY in %” value in the assay with ALOMY [6] is given as 100%. In the assay with DIGSA [7], the “Pre-emergence action against DIGSA in %” value worked out at 100%. The “Post-emergence action against AVEFA in %” value in the assay on AVEFA [8] stood at 90%. Further, the “Pre-emergence action against VIOTR in %” value with VIOTR is recorded as 100%. Besides, in the assay with AMARE [9], the “Pre-emergence action against AMARE in %” value turned out to be 90%. For the same compound, the “Pre-emergence action against AVEFA in %” value in the assay with AVEFA [10] is on record as 90%. Moreover, in the assay with LOLRI [11], the “Post-emergence action against LOLRI in %” value is 100%. The “Pre-emergence action against ECHCG in %” value in the assay with ECHCG [12] is reported as 100%. In the assay with ABUTH [14], the “Pre-emergence action against ABUTH in %” value is on record as 80%. For the same compound, in the assay with ECHCG [15], the “Post-emergence action against ECHCG in %” value was determined as 100%. The “Pre-emergence action against SETVI in %” value with SETVI [16] was determined as 100%. For the same compound, the “Post-emergence action against ABUTH in %” value in the assay on ABUTH [18] is listed as 80%.

As for `C=CCOCC1CCC2(C1)NC(=O)C(c1c(C)cc(C#CC)cc1Br)=C2OC(=O)OCC` (stereo not drawn) [Example P-88], the “Post-emergence action against AMARE in %” value in the assay with AMARE [1] is reported as 80%. Further, in the assay on SETVI [2], the “Post-emergence action against SETVI in %” value came out at 100%. Also, in the assay with DIGSA [3], the “Post-emergence action against DIGSA in %” value is given as 90%. In the assay on LOLRI [4], the “Pre-emergence herbicidal action against LOLRI in %” value is on record as 100%. Further, the “Post-emergence action against ALOMY in %” value in the assay on ALOMY [5] is on record as 100%. Besides, in the assay on ALOMY [6], the “Pre-emergence action against ALOMY in %” value amounted to 100%. In addition, in the assay on DIGSA [7], the “Pre-emergence action against DIGSA in %” value is reported as 100%. The “Pre-emergence action against VIOTR in %” value in the assay on VIOTR is 100%. The “Pre-emergence action against AVEFA in %” value in the assay with AVEFA [10] worked out at 90%. Further, in the assay with LOLRI [11], the “Post-emergence action against LOLRI in %” value worked out at 100%. Further, the “Pre-emergence action against ECHCG in %” value in the assay on ECHCG [12] stood at 100%. In addition, in the assay on VERPE [13], the “Pre-emergence action against VERPE in %” value is given as 100%. Moreover, in the assay on ABUTH [14], the “Pre-emergence action against ABUTH in %” value is 80%. In addition, the “Post-emergence action against ECHCG in %” value in the assay on ECHCG [15] is on record as 100%. In the assay on SETVI [16], the “Pre-emergence action against SETVI in %” value amounted to 100%.
